{
  "source": "patent US20030166007A1",
  "about": "“Chemical proteomics” (MDS Proteomics Inc., priority 2002, published 2003)",
  "key": {"[1]": {"test_system": "Inosine monophosphate dehydrogenase", "assay": "MTX-agarose affinity chromatography of cell lysate, MS identification", "format": "binding, human", "conditions": "HEK 293 lysate", "method": "(§1) After incubation for 30 minutes at 4° C. with shaking, the lysates were clarified by centrifugation (27,000×g). In some experiments, cells were lysed using 20 strokes of a Dounce® homogenizer in the absence of detergents. […] While optimizing the protocol, however, several experimental variations were tested on cell lysates including concentration by ammonium sulfate precipitation, or removal of nucleic acid with Streptomycin sulfate. In such cases, the protein sample was desalted using a PD 10 protein-desalting column (Pharmacia), which had been pre-equilibrated in the same buffer (10 mM potassium phosphate pH 7.5)\n(§2) Affinity Chromatography: The desalted lysate was loaded onto a column of pre-equilibrated MTX-agarose (Sigma, 50 μL bed volume) or sepharose 4B agarose as a negative control. The lysates were allowed to slowly flow through the matrix under gravity flow. […] Retentates from the microcons were then loaded onto SDS-PAGE 4%-15% gradient mini gels (Bio-Rad). […]\n(§3) The peptides were then separated by reverse phase chromatography on C18 resin and directly injected into a mass spectrometer using an automated sample-loading device from 96 well plates. […] The spectra generated were analyzed on a custom-built multi-node server platform (RADARS, ProteoMetrics), which uses two database searching programs, Sonar (ProteoMetrics) and Mascot (Matrix Sciences). […]"}, "Nudix 5": {"biological_target": "T1, Nudix 5 (Homo sapiens, UniProt Q9UKK9)", "T1 construct": "endogenous in cells; host or cells: HEK 293", "assay": "MTX-agarose affinity chromatography of cell lysate, MS identification", "format": "binding", "conditions": "HEK 293 lysate", "method": "as §1, §2, §3"}, "[2]": {"biological_target": "T2, Hypoxanthine phosphoribosyltransferase (HPRT) (Homo sapiens, UniProt P00492)", "T2 construct": "endogenous in cells; host or cells: HEK 293", "T2 sequence (P00492 1-218)": "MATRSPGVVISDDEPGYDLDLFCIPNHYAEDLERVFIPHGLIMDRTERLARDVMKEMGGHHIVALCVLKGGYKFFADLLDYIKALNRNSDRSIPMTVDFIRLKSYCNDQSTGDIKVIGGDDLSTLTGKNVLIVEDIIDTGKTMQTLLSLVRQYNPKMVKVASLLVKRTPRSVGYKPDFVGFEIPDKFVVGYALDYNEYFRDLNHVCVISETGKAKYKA", "assay": "MTX-agarose affinity chromatography of cell lysate, MS identification", "format": "binding", "conditions": "HEK 293 lysate, lane 9", "method": "as §1, §2, §3"}, "HPRT": {"biological_target": "T3, HPRT (Homo sapiens, UniProt P00492)", "T3 sequence (P00492 1-218)": "T2 sequence (P00492 1-218)", "conditions": "cited from earlier work"}, "[3]": {"biological_target": "T4, Propionyl CoA carboxylase (Homo sapiens, UniProt P05165+P05166)", "T4 construct": "endogenous in cells; host or cells: HEK 293", "T4 sequence (P05165 53-728)": "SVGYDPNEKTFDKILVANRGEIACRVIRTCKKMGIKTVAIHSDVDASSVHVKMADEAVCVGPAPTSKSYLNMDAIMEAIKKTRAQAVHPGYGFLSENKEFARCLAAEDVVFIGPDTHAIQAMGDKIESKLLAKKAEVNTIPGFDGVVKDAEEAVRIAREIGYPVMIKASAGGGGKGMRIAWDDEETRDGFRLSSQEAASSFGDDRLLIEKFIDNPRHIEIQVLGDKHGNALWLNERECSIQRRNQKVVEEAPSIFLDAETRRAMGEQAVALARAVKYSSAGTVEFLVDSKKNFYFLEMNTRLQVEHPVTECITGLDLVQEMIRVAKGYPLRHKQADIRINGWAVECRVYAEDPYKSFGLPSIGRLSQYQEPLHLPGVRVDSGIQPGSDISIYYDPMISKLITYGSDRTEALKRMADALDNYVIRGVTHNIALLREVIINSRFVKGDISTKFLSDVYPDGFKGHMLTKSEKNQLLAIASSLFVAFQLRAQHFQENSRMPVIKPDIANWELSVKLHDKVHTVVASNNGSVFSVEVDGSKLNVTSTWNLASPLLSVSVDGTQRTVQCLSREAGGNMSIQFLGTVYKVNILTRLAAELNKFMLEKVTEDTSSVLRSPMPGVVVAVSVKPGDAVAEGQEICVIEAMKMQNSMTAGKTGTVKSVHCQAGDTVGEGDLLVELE", "T4 sequence (P05166 29-539)": "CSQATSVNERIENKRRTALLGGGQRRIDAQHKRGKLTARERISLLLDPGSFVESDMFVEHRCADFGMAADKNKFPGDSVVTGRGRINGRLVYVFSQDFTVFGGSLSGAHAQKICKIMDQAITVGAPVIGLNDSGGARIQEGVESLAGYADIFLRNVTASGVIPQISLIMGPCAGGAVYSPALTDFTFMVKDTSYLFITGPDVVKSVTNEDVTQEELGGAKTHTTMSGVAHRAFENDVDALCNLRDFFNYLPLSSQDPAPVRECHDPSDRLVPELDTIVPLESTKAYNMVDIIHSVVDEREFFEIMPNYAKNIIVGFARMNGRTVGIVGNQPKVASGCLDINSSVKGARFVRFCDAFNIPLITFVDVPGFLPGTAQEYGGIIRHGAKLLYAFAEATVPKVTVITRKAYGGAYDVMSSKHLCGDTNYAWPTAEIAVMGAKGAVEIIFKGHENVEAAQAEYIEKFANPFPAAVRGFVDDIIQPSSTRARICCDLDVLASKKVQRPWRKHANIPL", "assay": "MTX-agarose affinity chromatography of cell lysate, MS identification", "format": "binding", "conditions": "HEK 293 lysate", "method": "as §1, §2, §3"}, "Nudix 1": {"biological_target": "T5, Nudix 1 (Homo sapiens, UniProt P36639)", "T5 construct": "endogenous in cells; host or cells: HEK 293", "assay": "MTX-agarose affinity chromatography of cell lysate, MS identification", "format": "binding", "conditions": "HEK 293 lysate", "method": "as §1, §2, §3"}, "[4]": {"test_system": "Glycinamideribonucleotide synthase (GARS)", "assay": "MTX-agarose affinity chromatography of cell lysate, MS identification", "format": "binding, human", "conditions": "HEK 293 lysate; 110 kDa trifunctional protein and separate 50 kDa band", "method": "as §1, §2, §3"}, "[5]": {"test_system": "purine de novo synthesis in leukemia cells", "conditions": "on treatment with Methotrexate; cited from earlier work"}, "[6]": {"biological_target": "T6, Divalent Cation tolerant protein CUTA (Homo sapiens, UniProt O60888)", "T6 construct": "endogenous in cells; host or cells: HEK 293", "T6 sequence (O60888 33-179)": "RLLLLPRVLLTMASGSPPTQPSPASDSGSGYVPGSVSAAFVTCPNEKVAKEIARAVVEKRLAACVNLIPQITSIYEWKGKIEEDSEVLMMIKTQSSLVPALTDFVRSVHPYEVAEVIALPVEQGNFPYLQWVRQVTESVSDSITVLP", "assay": "MTX-agarose affinity chromatography of cell lysate, MS identification", "format": "binding", "conditions": "HEK 293 lysate", "method": "as §1, §2, §3"}, "[7]": {"biological_target": "T7, Pterin-4-alpha-carbinolamine dehydrogenase (PCD) (Homo sapiens, UniProt P61457)", "T7 construct": "endogenous in cells; host or cells: HEK 293", "T7 sequence (P61457 1-104)": "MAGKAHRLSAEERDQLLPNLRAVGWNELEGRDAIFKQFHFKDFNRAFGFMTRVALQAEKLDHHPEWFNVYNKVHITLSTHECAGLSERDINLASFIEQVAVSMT", "assay": "MTX-agarose affinity chromatography of cell lysate, MS identification", "format": "binding", "conditions": "HEK 293 lysate", "method": "as §1, §2, §3"}, "Glycogen Phosphorylase": {"test_system": "Glycogen Phosphorylase", "assay": "MTX-agarose affinity chromatography of cell lysate, MS identification", "format": "binding, human", "conditions": "HEK 293 lysate", "method": "as §1, §2, §3"}},
  "note": "Entries after “also recorded” stand apart in the source; their conditions may differ.",
  "data": [
    {"smiles": "CN(Cc1cnc2nc(N)nc(N)c2n1)c1ccc(C(=O)N[C@@H](CCC(=O)O)C(=O)O)cc1", "note": "[Methotrexate]", "values": [
      {"measurement": "Protein identified by Mass Spec.; New MTX interactor", "setting": "[1]", "value": "binds this enzyme directly"},
      {"measurement": "Protein identified by Mass Spec.; New MTX interactor", "setting": "[1]; listed as MTX", "value": "✓"},
      {"measurement": "Association with the Methotrexate matrix", "setting": "Nudix 5", "value": "consistently found; also recorded: direct interactions with the Methotrexate probe"},
      {"measurement": "Protein identified by Mass Spec.; New MTX interactor", "setting": "[2]", "value": "identified in the pull down in lane 9"},
      {"measurement": "Protein identified by Mass Spec.; New MTX interactor", "setting": "[2]; listed as MTX", "value": "✓"},
      {"measurement": "effect on activity of HPRT", "setting": "HPRT", "value": "can reduce the activity of HPRT"},
      {"measurement": "Association with the Methotrexate matrix", "setting": "[3]", "value": "pulled down consistently"},
      {"measurement": "Association with the Methotrexate matrix", "setting": "Nudix 1", "value": "consistently found"},
      {"measurement": "Association with the Methotrexate matrix", "setting": "[4]", "value": "GARS-derived peptides were isolated"},
      {"measurement": "accumulation of 5-phosphoribosyl-1-pyrophosphate", "setting": "[5]", "value": "3-4 fold"},
      {"measurement": "de novo purine pathway", "setting": "[5]", "value": "completely blocked"},
      {"measurement": "Association with the Methotrexate matrix", "setting": "[6]", "value": "consistently found; also recorded: pulled down consistently"},
      {"measurement": "Protein identified by Mass Spec.; New MTX interactor", "setting": "[7]", "value": "binds directly to Methotrexate"},
      {"measurement": "Protein identified by Mass Spec.; New MTX interactor", "setting": "[7]; listed as MTX", "value": "✓"},
      {"measurement": "Protein identified by Mass Spec.; New MTX interactor", "setting": "Glycogen Phosphorylase", "value": "direct binder of Methotrexate"},
      {"measurement": "Protein identified by Mass Spec.; New MTX interactor", "setting": "Glycogen Phosphorylase; listed as MTX", "value": "✓"}
    ]}
  ]
}
